In ChEMBL document CHEMBL1909046, “DrugMatrix in vitro pharmacology data” one finds IC50 and Ki data, which are given here for 21 molecules.

The target in data set [1] is Beta-3 adrenergic receptor (Homo sapiens, UniProt P13945). Nature of the data set: DRUGMATRIX: Adrenergic beta3 radioligand binding (ligand: [125I] Cyanopindolol). It is filed as cell membranes, Membrane. As to conditions: hek293; Not Active = under 50% inhibition at 10 µM.
The target in data set [2] is Mitogen-activated protein kinase 1 (Homo sapiens, UniProt P28482). The experiment in a line: DRUGMATRIX: Protein Serine/Threonine Kinase, ERK2 enzyme inhibition (substrate: Myelin Basic Protein). On the set-up: species or system Escherichia coli. As to conditions: Not Active = under 50% inhibition at 10 µM.
Sequence of Mitogen-activated protein kinase 1 (P28482 whole entry): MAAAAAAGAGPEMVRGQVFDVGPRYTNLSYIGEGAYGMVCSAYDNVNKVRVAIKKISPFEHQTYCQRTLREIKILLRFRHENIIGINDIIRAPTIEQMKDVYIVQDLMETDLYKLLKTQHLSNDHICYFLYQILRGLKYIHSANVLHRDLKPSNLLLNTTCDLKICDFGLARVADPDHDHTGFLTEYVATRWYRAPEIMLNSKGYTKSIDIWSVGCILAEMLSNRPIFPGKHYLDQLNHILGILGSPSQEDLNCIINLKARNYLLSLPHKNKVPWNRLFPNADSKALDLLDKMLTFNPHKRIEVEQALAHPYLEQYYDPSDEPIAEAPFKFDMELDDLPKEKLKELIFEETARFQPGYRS
The target in data set [3] is T1, 5-hydroxytryptamine receptor 1A (Rattus norvegicus, UniProt P19327). Further: in other assays of this panel Not Active means under 50% inhibition at 10 µM.
T1 sequence (P19327 whole entry): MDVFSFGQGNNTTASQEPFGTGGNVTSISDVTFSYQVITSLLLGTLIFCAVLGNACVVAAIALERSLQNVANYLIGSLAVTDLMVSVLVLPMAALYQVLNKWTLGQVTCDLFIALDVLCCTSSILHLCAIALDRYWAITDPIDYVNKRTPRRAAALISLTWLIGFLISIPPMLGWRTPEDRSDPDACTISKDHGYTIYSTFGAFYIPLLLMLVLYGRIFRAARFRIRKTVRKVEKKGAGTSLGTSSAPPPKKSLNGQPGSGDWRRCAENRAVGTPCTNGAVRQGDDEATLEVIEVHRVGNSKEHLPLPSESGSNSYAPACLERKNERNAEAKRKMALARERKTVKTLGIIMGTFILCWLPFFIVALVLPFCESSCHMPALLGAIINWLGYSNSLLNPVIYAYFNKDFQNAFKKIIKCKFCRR
In kind it is cell membranes, Membrane. The conditions noted are these: cho-k1.

Another data set deals with Cytochrome P450 2C9 (Homo sapiens, UniProt P11712). As to conditions: bti-tn-5b1-4.
Sequence of Cytochrome P450 2C9 (P11712 whole entry): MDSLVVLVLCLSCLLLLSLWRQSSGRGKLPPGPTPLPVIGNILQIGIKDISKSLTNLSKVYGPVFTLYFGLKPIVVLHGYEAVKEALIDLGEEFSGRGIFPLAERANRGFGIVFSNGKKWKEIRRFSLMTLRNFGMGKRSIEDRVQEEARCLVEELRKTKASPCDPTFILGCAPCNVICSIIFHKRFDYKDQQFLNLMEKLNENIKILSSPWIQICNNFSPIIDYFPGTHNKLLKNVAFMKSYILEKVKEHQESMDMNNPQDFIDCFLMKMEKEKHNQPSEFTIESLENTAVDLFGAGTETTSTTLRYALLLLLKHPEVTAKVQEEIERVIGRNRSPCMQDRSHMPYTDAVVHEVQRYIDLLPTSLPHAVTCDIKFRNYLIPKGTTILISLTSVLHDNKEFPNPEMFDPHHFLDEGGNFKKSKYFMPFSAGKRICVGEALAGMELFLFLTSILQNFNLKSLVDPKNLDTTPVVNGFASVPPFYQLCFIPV
A further data set deals with Histamine H2 receptor (Homo sapiens, UniProt P25021). In kind it is cell membranes, CHO-K1, Membrane. As to conditions: cho-k1.
Sequence of Histamine H2 receptor (P25021 whole entry): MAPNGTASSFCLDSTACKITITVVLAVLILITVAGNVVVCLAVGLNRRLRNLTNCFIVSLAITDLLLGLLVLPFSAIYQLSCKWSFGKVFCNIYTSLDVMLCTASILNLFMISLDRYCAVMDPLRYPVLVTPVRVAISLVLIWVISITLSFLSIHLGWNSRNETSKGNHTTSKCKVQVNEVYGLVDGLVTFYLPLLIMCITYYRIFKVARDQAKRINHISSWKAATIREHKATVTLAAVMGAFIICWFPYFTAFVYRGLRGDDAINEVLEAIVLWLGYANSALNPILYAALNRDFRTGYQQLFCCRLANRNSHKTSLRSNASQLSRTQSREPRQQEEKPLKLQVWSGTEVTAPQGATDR
The target in data set [4] is 5-hydroxytryptamine receptor 2B (Homo sapiens, UniProt P41595). In kind it is cell membranes, CHO-K1, Membrane. Further: in other assays of this panel Not Active means under 50% inhibition at 10 µM.
Sequence of 5-hydroxytryptamine receptor 2B (P41595 whole entry): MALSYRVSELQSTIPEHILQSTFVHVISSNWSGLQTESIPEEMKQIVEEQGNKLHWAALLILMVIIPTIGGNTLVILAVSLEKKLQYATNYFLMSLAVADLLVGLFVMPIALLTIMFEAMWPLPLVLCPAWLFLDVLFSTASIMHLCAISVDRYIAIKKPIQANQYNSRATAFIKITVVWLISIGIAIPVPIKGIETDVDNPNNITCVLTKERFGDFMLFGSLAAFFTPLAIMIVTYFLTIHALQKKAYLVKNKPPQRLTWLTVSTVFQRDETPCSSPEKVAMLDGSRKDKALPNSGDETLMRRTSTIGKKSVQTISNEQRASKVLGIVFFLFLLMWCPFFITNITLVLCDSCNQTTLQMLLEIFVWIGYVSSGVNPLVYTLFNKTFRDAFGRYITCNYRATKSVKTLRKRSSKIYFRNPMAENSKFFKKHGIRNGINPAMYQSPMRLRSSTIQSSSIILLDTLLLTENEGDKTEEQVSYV
In a further data set the target is T2, Thromboxane-A synthase (Homo sapiens, UniProt P24557).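 Further: enzyme inhibition assay with PGH2 supplied as substrate; in other assays of this panel Not Active means under 50% inhibition at 10 µM.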
T2 sequence (P24557 whole entry): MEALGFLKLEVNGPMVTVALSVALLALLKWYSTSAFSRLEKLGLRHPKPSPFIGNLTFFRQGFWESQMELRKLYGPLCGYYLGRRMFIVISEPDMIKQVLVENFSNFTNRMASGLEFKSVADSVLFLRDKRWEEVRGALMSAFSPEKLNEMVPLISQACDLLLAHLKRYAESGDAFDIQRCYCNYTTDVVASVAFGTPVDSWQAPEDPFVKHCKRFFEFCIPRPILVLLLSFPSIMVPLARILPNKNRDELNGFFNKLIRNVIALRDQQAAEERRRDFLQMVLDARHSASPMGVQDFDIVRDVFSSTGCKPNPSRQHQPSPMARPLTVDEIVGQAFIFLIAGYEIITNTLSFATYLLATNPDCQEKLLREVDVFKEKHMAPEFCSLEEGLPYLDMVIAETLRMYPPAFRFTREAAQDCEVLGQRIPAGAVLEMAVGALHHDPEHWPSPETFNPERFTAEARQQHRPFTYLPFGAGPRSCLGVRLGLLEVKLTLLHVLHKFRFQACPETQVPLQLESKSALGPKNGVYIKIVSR
Nature of the data set: biochemical. In kind it is tissue-based, Platelet. As to conditions: platelet.
Wherever Ki is given: in other assays of this panel Not Active means under 50% inhibition at 10 µM.

Sequence of Beta-3 adrenergic receptor (P13945 whole entry): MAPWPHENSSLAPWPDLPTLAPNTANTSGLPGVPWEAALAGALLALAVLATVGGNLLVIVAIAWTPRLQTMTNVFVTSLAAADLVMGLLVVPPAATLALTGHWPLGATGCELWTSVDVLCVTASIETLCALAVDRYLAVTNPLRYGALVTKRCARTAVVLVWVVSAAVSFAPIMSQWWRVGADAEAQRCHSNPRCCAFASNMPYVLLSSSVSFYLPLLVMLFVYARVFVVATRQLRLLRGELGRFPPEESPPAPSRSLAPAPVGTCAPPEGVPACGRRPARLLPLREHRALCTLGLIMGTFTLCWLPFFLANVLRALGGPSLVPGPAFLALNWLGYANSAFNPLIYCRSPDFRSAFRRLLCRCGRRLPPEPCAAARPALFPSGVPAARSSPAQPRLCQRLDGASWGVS

For orientation: IC50 means the concentration at which inhibition is half-maximal. By Ki is commonly meant the dissociation constant of the complex between target and ligand, obtained from inhibition or displacement. On to `CC(C(=O)O)c1cccc(C(=O)c2ccccc2)c1` (centres undefined) [KETOPROFEN], for which the IC50 result (in data set [1]; in data set [2]; in data set [3]; on Cytochrome P450 2C9; at Histamine H2 receptor; in data set [4] (cho-k1)) was “Not Active” each time. Moreover, at Thromboxane-A synthase, the IC50 result is “Not Active”. Moreover, the Ki entry at Cytochrome P450 2C9 is recorded as “Not Active”.
Turning to `Nc1ccn([C@@H]2CS[C@H](CO)O2)c(=O)n1` [LAMIVUDINE], the IC50 entry (in data set [1]; in data set [2]; in data set [3]; against Cytochrome P450 2C9; on Histamine H2 receptor; in data set [4] (cho-k1)) was “Not Active” throughout. Moreover, the IC50 entry on Thromboxane-A synthase is “Not Active”. For the same molecule, the Ki entry at Cytochrome P450 2C9 is on record as “Not Active”.
For `O=S(=O)([O-])CCS.[Na+]` [MESNA], the IC50 entry (in data set [1]; in data set [2]; in data set [3]; at Cytochrome P450 2C9; at Histamine H2 receptor; in data set [4] (cho-k1)) was “Not Active” in each case. Besides, the IC50 result on Thromboxane-A synthase is “Not Active”. In addition, the Ki result on Cytochrome P450 2C9 is given as “Not Active”.
With `C#C[C@]1(O)CC[C@H]2[C@@H]3CCc4cc(OC)ccc4[C@H]3CC[C@@]21C` [MESTRANOL], the IC50 result (in data set [1]; in data set [2]; in data set [3]; against Cytochrome P450 2C9; against Histamine H2 receptor; in data set [4] (cho-k1)) was “Not Active” throughout. Also, on Thromboxane-A synthase, the IC50 result is given as “Not Active”. Also, the Ki result at Cytochrome P450 2C9 was “Not Active”.
For `CC(=O)Nc1cccc(O)c1` [METACETAMOL], the IC50 result (in data set [1]; in data set [2]; in data set [3]; against Cytochrome P450 2C9; at Histamine H2 receptor; in data set [4] (cho-k1)) was “Not Active” in each case. The IC50 result against Thromboxane-A synthase is on record as “Not Active”. For the same molecule, the Ki result on Cytochrome P450 2C9 was “Not Active”.
As to `Cc1ncc([N+](=O)[O-])n1CCO` [METRONIDAZOLE], the IC50 entry (in data set [1]; in data set [2]; in data set [3]; against Cytochrome P450 2C9; on Histamine H2 receptor; in data set [4] (cho-k1)) was “Not Active” each time. At Thromboxane-A synthase, the IC50 result was “Not Active”. In addition, the Ki result at Cytochrome P450 2C9 was “Not Active”.
As to `CC(C)(C(=O)c1cccnc1)c1cccnc1` [METYRAPONE], the IC50 entry (in data set [1]; in data set [2]; in data set [3]; at Cytochrome P450 2C9; against Histamine H2 receptor; in data set [4] (cho-k1)) was “Not Active” each time. For the same molecule, on Thromboxane-A synthase, the IC50 entry is “Not Active”. Moreover, at Cytochrome P450 2C9, the Ki entry was “Not Active”.
For `CC(C)(Oc1ccc(C2CCCc3ccccc32)cc1)C(=O)O` (centres undefined) [NAFENOPIN], the concentration for half-maximal inhibition (IC50) result in data set [1] is “Not Active”; in data set [2] (read-out: IC50), 815 nM; in data set [3], “Not Active”; against Cytochrome P450 2C9, “Not Active”; on Histamine H2 receptor, “Not Active”; in data set [4] (cho-k1), “Not Active”. In addition, the IC50 entry against Thromboxane-A synthase was “Not Active”. The Ki entry on Cytochrome P450 2C9 is listed as “Not Active”.
With `CC(C)[C@H]1CC[C@H](C(=O)N[C@H](Cc2ccccc2)C(=O)O)CC1` [NATEGLINIDE], the IC50 entry (in data set [1]; in data set [2]; in data set [3]; against Cytochrome P450 2C9; on Histamine H2 receptor; in data set [4] (cho-k1)) was “Not Active” each time. The IC50 entry against Thromboxane-A synthase was “Not Active”. The Ki entry on Cytochrome P450 2C9 is on record as “Not Active”.
For `CCN[C@@H]1C[C@H](N)[C@@H](O[C@H]2OC(CN)=CC[C@H]2N)[C@H](O)[C@H]1O[C@H]1OC[C@](C)(O)[C@H](NC)[C@H]1O` [NETILMICIN], the IC50 result (in data set [1]; in data set [2]; in data set [3]; at Cytochrome P450 2C9; on Histamine H2 receptor; in data set [4] (cho-k1)) was “Not Active” throughout. Besides, the IC50 entry against Thromboxane-A synthase was “Not Active”. For the same molecule, the Ki entry at Cytochrome P450 2C9 is reported as “Not Active”.
With `C#C[C@]1(OC(C)=O)CC[C@H]2[C@@H]3CCC4=CC(=O)CC[C@@H]4[C@H]3CC[C@@]21C` [NORETHINDRONE ACETATE], the IC50 entry (in data set [1]; in data set [2]; in data set [3]; against Cytochrome P450 2C9; against Histamine H2 receptor; in data set [4] (cho-k1)) was “Not Active” throughout. The IC50 result against Thromboxane-A synthase was “Not Active”. Besides, the inhibition constant (Ki) entry at Cytochrome P450 2C9 is “Not Active”.
`COc1ccc2[nH]c([S+]([O-])Cc3ncc(C)c(OC)c3C)nc2c1` (centres undefined) [OMEPRAZOLE]: the 50% inhibitory concentration (IC50) entry (in data set [1]; in data set [2]; in data set [3]; against Cytochrome P450 2C9; at Histamine H2 receptor; in data set [4] (cho-k1)) was “Not Active” in each case. On Thromboxane-A synthase, the IC50 result is “Not Active”. For the same molecule, the Ki result at Cytochrome P450 2C9 is given as “Not Active”.
As to `Cc1nccn1CC1CCc2c(c3ccccc3n2C)C1=O` (centres undefined) [ONDANSETRON], the IC50 result in data set [1] was “Not Active”; in data set [2] it was “Not Active”; in data set [3], “Not Active”; against Cytochrome P450 2C9 it was “Not Active”; against Histamine H2 receptor it was “Not Active”; in data set [4] (read-out: IC50), 717 nM. Besides, the IC50 result against Thromboxane-A synthase is recorded as “Not Active”. In addition, the Ki result was “Not Active” at Cytochrome P450 2C9 and 456 nM in data set [4] (read-out: Ki).
For the molecule `CCCCOc1ccc(OCCCN2CCOCC2)cc1` [PRAMOXINE], the IC50 result (in data set [1]; in data set [2]; in data set [3]; at Cytochrome P450 2C9; on Histamine H2 receptor; in data set [4] (cho-k1)) was “Not Active” each time. At Thromboxane-A synthase, the IC50 result was “Not Active”. Also, the Ki entry on Cytochrome P450 2C9 is recorded as “Not Active”.
In the case of `O=C(C1CCCCC1)N1CC(=O)N2CCc3ccccc3C2C1` (centres undefined) [PRAZIQUANTEL], the IC50 entry (in data set [1]; in data set [2]; in data set [3]; at Cytochrome P450 2C9; at Histamine H2 receptor; in data set [4] (cho-k1)) was “Not Active” in each case. The IC50 entry against Thromboxane-A synthase is recorded as “Not Active”. Besides, on Cytochrome P450 2C9, the Ki result is recorded as “Not Active”.
Consider `CCN(CC)CCOC(=O)c1ccc(N)cc1` [PROCAINE], for which the IC50 entry (in data set [1]; in data set [2]; in data set [3]; against Cytochrome P450 2C9; against Histamine H2 receptor; in data set [4] (cho-k1)) was “Not Active” each time. Besides, the IC50 entry against Thromboxane-A synthase was “Not Active”. Further, on Cytochrome P450 2C9, the Ki entry was “Not Active”.
Regarding `CCCN(CCC)C(=O)C(CCC(=O)O)NC(=O)c1ccccc1` (centres undefined) [PROGLUMIDE], the half-inhibitory concentration (IC50) entry (in data set [1]; in data set [2]; in data set [3]; against Cytochrome P450 2C9; on Histamine H2 receptor; in data set [4] (cho-k1)) was “Not Active” in each case. The IC50 entry on Thromboxane-A synthase is reported as “Not Active”. Also, the Ki entry at Cytochrome P450 2C9 is “Not Active”.
For `NC(=O)c1cnccn1` [PYRAZINAMIDE], the IC50 entry (in data set [1]; in data set [2]; in data set [3]; against Cytochrome P450 2C9; against Histamine H2 receptor; in data set [4] (cho-k1)) was “Not Active” in each case. Further, the IC50 result at Thromboxane-A synthase was “Not Active”. Moreover, the Ki entry on Cytochrome P450 2C9 is “Not Active”.
In the case of `OC(CCN1CCCCC1)(c1ccccc1)C1CCCCC1` (centres undefined) [TRIHEXYPHENIDYL], the IC50 result (in data set [1]; in data set [2]; in data set [3]; against Cytochrome P450 2C9; against Histamine H2 receptor; in data set [4] (cho-k1)) was “Not Active” in each case. Also, the IC50 result on Thromboxane-A synthase was “Not Active”. Besides, the Ki entry at Cytochrome P450 2C9 is “Not Active”.
Take `Cc1cc2cc3c(C)cc(=O)oc3c(C)c2o1` [TRIOXSALEN]: the IC50 entry (in data set [1]; in data set [2]; in data set [3]; on Cytochrome P450 2C9; at Histamine H2 receptor; in data set [4] (cho-k1)) was “Not Active” throughout. For the same molecule, the IC50 result against Thromboxane-A synthase was “Not Active”. In addition, at Cytochrome P450 2C9, the Ki result is “Not Active”.
On to `CCCC(CCC)C(=O)O` [VALPROIC ACID], for which the IC50 entry (in data set [1]; in data set [2]; in data set [3]; at Cytochrome P450 2C9; against Histamine H2 receptor; in data set [4] (cho-k1)) was “Not Active” in each case. Moreover, on Thromboxane-A synthase, the IC50 result is on record as “Not Active”. For the same molecule, on Cytochrome P450 2C9, the Ki result is listed as “Not Active”.
